Tests used:
Assay in all cases: microscale thermophoresis
Assay type in all cases: binding
septin6 = target: T1, septin6 (Homo sapiens, UniProt Q14141)
T1 sequence (Q14141 2-434): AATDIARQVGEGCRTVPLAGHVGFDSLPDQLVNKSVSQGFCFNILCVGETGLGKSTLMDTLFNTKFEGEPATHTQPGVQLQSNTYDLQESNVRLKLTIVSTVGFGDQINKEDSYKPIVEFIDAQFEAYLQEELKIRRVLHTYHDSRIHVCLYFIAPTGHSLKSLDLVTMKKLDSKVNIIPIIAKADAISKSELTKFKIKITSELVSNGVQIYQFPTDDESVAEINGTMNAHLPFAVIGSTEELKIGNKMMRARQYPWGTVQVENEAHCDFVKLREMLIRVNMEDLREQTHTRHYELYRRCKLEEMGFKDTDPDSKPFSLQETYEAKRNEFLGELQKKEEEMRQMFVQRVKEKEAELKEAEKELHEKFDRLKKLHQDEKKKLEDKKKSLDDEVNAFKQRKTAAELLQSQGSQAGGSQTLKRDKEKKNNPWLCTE

septin2 = target: T2, septin2 (Homo sapiens, UniProt Q15019)
T2 sequence (Q15019 1-361): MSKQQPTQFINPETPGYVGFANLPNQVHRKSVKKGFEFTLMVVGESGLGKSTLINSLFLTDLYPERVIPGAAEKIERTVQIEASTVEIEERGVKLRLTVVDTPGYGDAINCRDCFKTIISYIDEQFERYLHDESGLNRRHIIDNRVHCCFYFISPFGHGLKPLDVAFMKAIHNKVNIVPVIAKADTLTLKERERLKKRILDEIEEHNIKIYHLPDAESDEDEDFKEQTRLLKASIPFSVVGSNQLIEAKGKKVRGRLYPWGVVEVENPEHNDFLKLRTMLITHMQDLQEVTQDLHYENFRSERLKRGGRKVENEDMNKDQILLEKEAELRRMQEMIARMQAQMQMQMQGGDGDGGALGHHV

septin7 = target: T3, septin7 (Homo sapiens, UniProt Q16181)
T3 sequence (Q16181 2-437): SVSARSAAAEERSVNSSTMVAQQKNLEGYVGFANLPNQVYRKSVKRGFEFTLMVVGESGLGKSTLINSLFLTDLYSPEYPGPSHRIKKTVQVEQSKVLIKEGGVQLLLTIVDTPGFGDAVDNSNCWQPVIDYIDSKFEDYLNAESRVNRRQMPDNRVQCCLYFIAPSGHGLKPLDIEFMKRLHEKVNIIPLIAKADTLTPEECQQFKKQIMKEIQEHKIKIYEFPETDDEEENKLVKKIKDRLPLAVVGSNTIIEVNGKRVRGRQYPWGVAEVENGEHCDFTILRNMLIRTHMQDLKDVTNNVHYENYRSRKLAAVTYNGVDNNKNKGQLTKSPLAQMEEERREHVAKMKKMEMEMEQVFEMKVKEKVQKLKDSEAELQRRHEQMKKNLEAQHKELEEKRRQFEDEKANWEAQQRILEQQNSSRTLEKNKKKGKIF

Kd (septin6): 43.1 µM
Kd (septin2): 54.8 µM
Kd (septin7): 0.98 µM
Structure (SMILES): OC1(c2ccc(Cl)c(C(F)(F)F)c2)CCN(CCCC(c2ccc(F)cc2)c2ccc(F)cc2)CC1 [PFD, penfluridol]

Source: publication PMC11754080 (iScience, 2024)
